Results taken from patent US20170291905A1, “ARGININE […] INHIBITORS AND USES THEREOF” (Epizyme, Inc., priority 2014, published 2017).
Counter-ions that a name gives are not always drawn.

Biological target: full-length human PRMT8 isoform 1 (Homo sapiens, UniProt Q9NR22)
Assay: PRMT8 biochemical assay (3H-SAM Flashplate, histone H4 31-45 peptide)
Settings: 150 nM peptide
Excerpt: S-adenosylmethionine (SAM), S-adenosylhomocysteine (SAH), bicine, Tween20, dimethylsulfoxide (DMSO), bovine skin gelatin (BSG), isopropyl-β-D-thiogalactopyranoside (IPTG), and Tris(2-carboxyethyl)phosphine hydrochloride solution (TCEP) were purchased from Sigma-Aldrich at the highest level of purity possible. ^3H-SAM was purchase from American Radiolabeled Chemicals with a specific activity of 80 Ci/mmol. 384-well streptavidin Flashplates were purchased from PerkinElmer.
Peptide representative of human histone H4 residues 31-45 was synthesized with an N-terminal linker-affinity tag motif and a C-terminal amide cap by 21st Century Biochemicals. The peptide was purified by high-performance liquid chromatography (HPLC) to greater than 95% purity and confirmed by liquid chromatography mass spectrometry (LC-MS). The sequence was Biot-Ahx-[…]-amide (SEQ ID NO.:8).
The resulting construct encodes an N-terminal GST tag and a thrombin cleavage sequence
E. coli (BL21(DE3) Gold, Stratagene) made competent by the CaCl2 method were transformed with the PRMT8 construct and ampicillin selection. Protein over-expression was accomplished by growing the PRMT8 expressing E. coli clone and inducing expression with 0.3 mM IPTG at 16° C. The culture was grown for 12 hours, harvested by centrifugation, and stored at −80° C. for purification.
GST-tagged PRMT8 was eluted with 50 mM Tris, 2 mM glutathione, pH 7.8. Pooled fractions were cleaved by thrombin (10U) and dialysed in buffer A. GST was removed by reloading the cleaved protein sample onto glutathione sepharose column and PRMT8 was collected in the flow-through fractions. PRMT8 was purified further by ceramic hydroxyapatite chromatography. The column was washed with 50 mM phosphate buffer, 100 mM NaCl, 5% glycerol, 5 mM […], pH 7.8 and PRMT8 was eluted by 100 mM phosphate in the same buffer. Protein was concentrated and buffer was exchanged to 50 mM Tris, 300 mM NaCl, 10% glycerol, 5 mM β-mercaptoethanol, pH 7.8 by ultrafiltration. The purity of recovered protein was 89%.
General Procedure for PRMT8 Enzyme Assays on Peptide Substrates.
The assays were all performed in a buffer consisting of 20 mM Bicine (pH=7.6), 1 mM TCEP, 0.005% BSG, and 0.002% Tween 20, prepared on the day of use. Compounds in 100% DMSO (1 ul) were spotted into a polypropylene 384-well V-bottom plates (Greiner) using a Platemate Plus outfitted with a 384-channel head (Thermo Scientific). DMSO (1 ul) was added to Columns 11, 12, 23, 24, rows A-H for the maximum signal control and 1 ul of SAH, a known product and inhibitor of PRMT8, was added to columns 11, 12, 23, 24, rows I-P for the minimum signal control. A cocktail (40 ul) containing the PRMT8 enzyme was added by Multidrop Combi (Thermo-Fisher). The compounds were allowed to incubate with PRMT8 for 30 min at room temperature, then a cocktail (10 ul) containing ^3H-SAM and peptide was added to initiate the reaction (final volume=51 ul). The final concentrations of the components were as follows: PRMT8 was 1.5 nM, ^3H-SAM was 50 nM, non-radiolabeled SAM was 550 nM, peptide was 150 nM, SAH in the minimum signal control wells was 1 mM, and the DMSO concentration was 2%. The assays were stopped by the addition of non-radiolabeled SAM (10 ul) to a final concentration of 400 uM, which dilutes the ^3H-SAM to a level where its incorporation into the peptide substrate is no longer detectable. 50 ul of the reaction in the 384-well polypropylene plate was then transferred to a 384-well Flashplate and the biotinylated peptides were allowed to bind to the streptavidin surface for at least 1 hour before being washed once with 0.1% Tween20 in a Biotek ELx405 plate washer. The plates were then read in a PerkinElmer TopCount plate reader to measure the quantity of ^3H-labeled peptide bound to the Flashplate surface, measured as disintegrations per minute (dpm) or alternatively, referred to as counts per minute (cpm). […]

[1] = 1.5 nM PRMT8, 30 min preincubation

Chain of full-length human PRMT8 isoform 1 (Q9NR22 whole entry, canonical isoform): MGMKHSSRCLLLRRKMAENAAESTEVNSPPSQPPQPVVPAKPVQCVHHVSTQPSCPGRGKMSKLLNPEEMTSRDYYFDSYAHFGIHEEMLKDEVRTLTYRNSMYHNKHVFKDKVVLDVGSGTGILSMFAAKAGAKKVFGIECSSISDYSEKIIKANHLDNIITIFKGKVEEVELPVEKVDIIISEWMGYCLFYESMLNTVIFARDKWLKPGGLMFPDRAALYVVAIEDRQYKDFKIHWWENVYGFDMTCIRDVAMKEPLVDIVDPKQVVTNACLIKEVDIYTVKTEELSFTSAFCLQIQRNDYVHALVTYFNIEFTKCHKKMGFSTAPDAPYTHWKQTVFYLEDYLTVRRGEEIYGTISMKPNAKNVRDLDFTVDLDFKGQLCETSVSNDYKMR

| Compound | IC50 [1] | IC50 ([…] PRMT8, 30 min preincubation) |
| --- | --- | --- |
| CNCCN(C)Cc1ccnn1[C@H]1CC[C@]2(CC1)CC(C)(C)CO2 [compound 50, N1-((1-((5r,8r)-3,3-dimethyl-1-oxaspiro[4.5]decan-8-yl)-1H-pyrazol-5-yl)methyl)-N1,N2-dimethylethane-1,2-diamine] | 32.2 nM |  |
| CNCCN(C)Cc1c(C)noc1[C@H]1CC[C@@]2(CC1)CC(C)(C)CO2 [compound 113] | 51.5 nM |  |
| CN(CCN)Cc1c[nH]nc1[C@H]1CC[C@@]2(CC1)CC(C)(C)CO2 [compound 105] | 9.13 nM |  |
| CNCCN(C)Cc1c(C)[nH]nc1[C@H]1CC[C@]2(CC1)CC(C)(C)CO2 [compound 58] | 55.1 nM |  |
| CNCCN(C)Cc1nccn1[C@H]1CC[C@@]2(CC1)CC(C)(C)CO2 [compound 69] | 273 nM |  |
| CNCCN(C)Cc1sc(C)nc1[C@H]1CC[C@@]2(CC1)CC(C)(C)CO2 [compound 78] | 33.8 nM |  |
| CNCCN(C)Cc1nocc1[C@H]1CC[C@@]2(CC1)CC(C)(C)CO2 [compound 117] | 40.8 nM |  |
| CNCCN(C)Cc1nncn1[C@H]1CC[C@]2(CC1)CC(C)(C)CO2 [compound 90] | > 10000 nM |  |
| CNCCN(C)Cc1nn(C)cc1[C@H]1CC[C@]2(CC1)CC(C)(C)CO2 [compound 103] | 42.7 nM |  |
| CNCCN(C)Cc1c[nH]nc1C1CCC(C)(C)[C@H](OCC(C)C)C1 (stereo partly drawn) [compound 20, ({3-[(3R)-4,4-dimethyl-3-(2-methylpropoxy)cyclohexyl]-1H-pyrazol-4-yl}methyl)(methyl)[2-(methylamino)ethyl]amine] | 24.5 nM |  |
| CCOCC1(COCC)CCC(c2nn(C)cc2CN(C)CCNC)CC1 [compound 122] | 28.3 nM |  |
| CCC1CC(c2n[nH]cc2CN(C)CCNC)CC(C(=O)NCCOC)C1(C)C (stereo not shown) [compound 21, 3-ethyl-N-(2-methoxyethyl)-2,2-dimethyl-5-[4-([methyl[2-(methylamino)ethyl]amino]methyl)-1H-pyrazol-3-yl]cyclohexane-1-carboxamide dihydrochloride] | 614 nM |  |
| CNCCN(C)Cc1scnc1[C@H]1CC[C@]2(CC1)CC(C)(C)CO2 [compound 84] | 24.2 nM |  |
| CNCCN(C)Cc1nn(C)nc1C1CCC2(CC1)CC(C)(C)CO2 (stereo not shown) [compound 86] |  | 49.9 nM |
| CNCCN(C)Cc1nn(C)nc1[C@H]1CC[C@@]2(CC1)CC(C)(C)CO2 [compound 64] | 25.3 nM |  |
| Cc1[nH]nc([C@H]2CC[C@@]3(CC2)CC(C)(C)CO3)c1CN(C)CCN [compound 51, N1-((3-((5s,8s)-3,3-dimethyl-1-oxaspiro[4.5]decan-8-yl)-5-methyl-1H-pyrazol-4-yl)methyl)-N1-methylethane-1,2-diamine] | 14.2 nM |  |
| CNCCN(C)Cc1nocc1[C@H]1CC[C@]2(CC1)CC(C)(C)CO2 [compound 118] | 482 nM |  |
| CNCCN(C)Cc1nn[nH]c1[C@H]1CC[C@]2(CC1)CC(C)(C)CO2 [compound 89] | 137 nM |  |
| CNCCN(C)Cc1sc(C)nc1[C@H]1CC[C@]2(CC1)CC(C)(C)CO2 [compound 100] | 43.6 nM |  |
| CNCCN(C)Cc1cncn1[C@H]1CC[C@@]2(CC1)CC(C)(C)CO2 [compound 76] | 15.7 nM |  |
| CNCCN(C)Cc1nn[nH]c1[C@H]1CC[C@@]2(CC1)CC(C)(C)CO2 [compound 67] | 19.8 nM |  |
| CNCCNCc1c[nH]nc1[C@H]1CC[C@]2(CC1)CC(C)(C)CO2 [compound 29, N1-((3-((5r,8r)-3,3-dimethyl-1-oxaspiro[4.5]decan-8-yl)-1H-pyrazol-4-yl)methyl)-N2-methylethane-1,2-diamine] | 258 nM |  |
| CCOCC1(COCC)CCC(c2nn(C)cc2CN(C)CCN)CC1 [compound 124] | 25.4 nM |  |

Further lines, results first:

| IC50 [1] | IC50 ([…] PRMT8, 30 min preincubation) | Compound |
| --- | --- | --- |
| 18.3 nM |  | CNCCN(C)Cc1c[nH]nc1[C@H]1CC[C@H](COCC(F)(F)F)CC1 [compound 24, N1,N2-dimethyl-N1-((3-((1r,4r)-4-((2,2,2-trifluoroethoxy)methyl)cyclohexyl)-1H-pyrazol-4-yl)methyl)ethane-1,2-diamine] |
| 291 nM |  | CNCCN(C)Cc1c[nH]nc1C1CCC(C)(C)[C@H](CO)C1 (stereo partly drawn) [compound 32, [(1R)-2,2-dimethyl-5-[4-({methyl[2-(methylamino)ethyl]amino}methyl)-1H-pyrazol-3-yl]cyclohexyl]methanol] |
| 110 nM |  | CNCCN(C)Cc1c[nH]nc1C1CCC(C)(C)[C@H](COCCOC)C1 (stereo partly drawn) [compound 35, {2-[({3-[(3R)-3-[(2-methoxyethoxy)methyl]-4,4-dimethylcyclohexyl]-1H-pyrazol-4-yl}methyl)(methyl)amino]ethyl}(methyl)amine] |
| 31.2 nM |  | CNCCN(C)Cc1c[nH]nc1[C@@H]1CC[C@H](OCCCOC)C2(CCCC2)C1 (racemic) [compound 27, N1-((3-((7R,10S)-10-(3-methoxypropoxy)spiro[4.5]decan-7-yl)-1H-pyrazol-4-yl)methyl)-N1,N2-dimethylethane-1,2-diamine] |
| > 10000 nM |  | CNCCN(C)Cc1c[nH]nc1C1C[C@@H](C(=O)N(C)CC(C)C)C(C)(C)[C@H](C(=O)N(C)CC(C)C)C1 (stereo partly shown) [compound 12] |
| 365 nM |  | CNCCN(C)Cc1c[nH]nc1C1CC(COCC2CC2)CC(COCC2CC2)C1 (stereo not shown) [compound 2] |
| 106 nM |  | CNCCN(C)Cc1c[nH]nc1[C@H]1CC[C@]2(CCN(CCC(C)C)C2=O)CC1 [compound 10] |
| 32.8 nM |  | CNCCN(C)Cc1c[nH]nc1[C@H]1CC[C@@]2(CCCCO2)CC1 [compound 3] |
| 11.1 nM |  | CNCCN(C)Cc1c[nH]nc1C1CCC2(CCC(OC)CC2)CC1 (stereo not shown) [compound 9, N1-((3-(9-methoxyspiro[5.5]undecan-3-yl)-1H-pyrazol-4-yl)methyl)-N1,N2-dimethylethane-1,2-diamine] |
| 45.5 nM |  | CC[C@]12CC[C@](CC)(C[C@H](c3n[nH]cc3CN(C)CCNC)C1)O2 [compound 37, N1-((3-((1R,3r,5S)-1,5-diethyl-8-oxabicyclo[3.2.1]octan-3-yl)-1H-pyrazol-4-yl)methyl)-N1,N2-dimethylethane-1,2-diamine] |
| 9.49 nM |  | CCOCC1(COCC)CCC(c2n[nH]cc2CN(C)CCN)CC1 [compound 123] |
| 67.2 nM |  | CN(CCN)Cc1c[nH]nc1[C@H]1CC[C@]2(CC1)CC(C)(C)CO2 [compound 106] |
| 62.4 nM |  | CNCCN(C)Cc1c[nH]nc1C1CCC(COCC(C)C)(COCC(C)C)CC1 [compound 6] |
| 16 nM |  | CNCCN(C)Cc1c[nH]nc1[C@H]1CC[C@]2(CCCOC2)CC1 [compound 4, N1-((3-((6s,9s)-2-oxaspiro[5.5]undecan-9-yl)-1H-pyrazol-4-yl)methyl)-N1,N2-dimethylethane-1,2-diamine] |
| 20.3 nM |  | CCC1(CC)CC2(CCC(c3n[nH]cc3CN(C)CCNC)CC2)N(C)C1=O (stereo not shown) [compound 22, 3,3-diethyl-1-methyl-8-(4-((methyl(2-(methylamino)ethyl)amino)methyl)-1H-pyrazol-3-yl)-1-azaspiro[4.5]decan-2-one] |
| 12.4 nM |  | CCCOCC1(COCCC)CCC(c2n[nH]cc2CN(C)CCNC)CC1 [compound 36, N^1-((3-(4,4-bis(propoxymethyl)cyclohexyl)-1H-pyrazol-4-yl)methyl)-N^1,N^2-dimethylethane-1,2-diamine] |
| 177 nM |  | CC[C@]12CC[C@](CC)(C[C@@H](c3n[nH]cc3CN(C)CCNC)C1)O2 [compound 38, N1-((3-((1R,3s,5S)-1,5-diethyl-8-oxabicyclo[3.2.1]octan-3-yl)-1H-pyrazol-4-yl)methyl)-N1,N2-dimethylethane-1,2-diamine] |
